Holding throughout (test): NCI tumour cell line growth inhibition, 48 h
For experiment [1], the system named is A549 NSCLC.
Experiment [2] has as its system CCRF-CEM leukemia.
Experiment [3] has as its system EKVX NSCLC.
The test system of experiment [4] is HCT-116 colon.
Experiment [5] concerns HL-60(TB) leukemia.
The test system of experiment [6] is IGROV1 ovarian.
Experiment [7] has as its system K-562 leukemia.
Experiment [8] concerns KM12 colon.
Experiment [9] deals with M14 melanoma.
Experiment [10] relates to MOLT-4 leukemia.
For experiment [11], the system named is OVCAR-5 ovarian.
The test system of experiment [12] is SF-295 CNS.
Experiment [13] has as its system SK-MEL-5 melanoma.
The subject of experiment [14] is SNB-19 CNS.
Experiment [15] deals with SNB-75 CNS.
The test system of experiment [16] is SW-620 colon.
Experiment [17] relates to UACC-62 melanoma.
The subject of experiment [18] is OVCAR-4 ovarian.
For experiment [19], the system named is HCC-2998 colon.
The test system of experiment [20] is MCF7 breast.

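1) Cells in 96-well plates. 2) Compound, 48 h, 5 concentrations. 3) Linear interpolation between surrounding doses. 4) Unreached endpoint = highest concentration. The concentration for full growth arrest is given as TGI.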 Where only a bound is given, the exact number is not on record here.

Take `CC(=O)N1c2ccccc2[C@H]2CCc3c([nH]c4ccccc34)[C@H]21`: the TGI in experiment [1] is 67.3 µM; in [2], 40.2 µM; in experiment [3], 49 µM; in [4], 11.4 µM; in [5], 34.2 µM; in experiment [6] it was 44.3 µM. Besides, the TGI in experiment [7] was 30.9 µM; in experiment [8], 39.5 µM; in experiment [9], 30.9 µM; in experiment [10], 53.1 µM; in [11], greater than 100 µM; in [12], 74.4 µM. Further, the TGI in [13] was 26.2 µM; in experiment [14], greater than 100 µM; in [15] it was 63 µM; in [16], 37.3 µM; in experiment [17], 27.7 µM.
As for `O=C(NN1C(=O)C(Cl)C1c1c(O)ccc2ccccc12)c1ccccc1O` (stereo not drawn), the TGI in [1], in [2], in experiment [4], in experiment [5], in [6] and in experiment [7] was greater than 100 µM throughout. For the same compound, the TGI in experiment [8], in experiment [9], in [10], in experiment [18], in experiment [12] and in experiment [13] was greater than 100 µM throughout. The TGI in [14], in experiment [15] and in experiment [17] was greater than 100 µM each time.
As for `Cn1cnnc1SC(F)(F)c1nc2ccccc2o1`, the TGI in experiment [1], in experiment [2], in experiment [19], in [4], in experiment [6] and in experiment [7] was greater than 100 µM throughout. The TGI in experiment [8], in experiment [9], in [20], in experiment [10], in [18] and in [11] was greater than 100 µM each time. In addition, the TGI in experiment [12], in [13], in experiment [15], in experiment [16] and in experiment [17] was greater than 100 µM throughout.
Take `CCCCOCCOCCOC1=C(Cl)C(=O)c2c(O)ccc(O)c2C1=O`: the TGI in experiment [1] came out at 4.14 µM; in [2], 0.555 µM; in experiment [3], 6.96 µM; in experiment [19], 4.79 µM; in experiment [4], 1.41 µM; in experiment [6], 2.78 µM. The TGI worked out at 3.6 µM in [8]; 0.317 µM in experiment [9]; 0.1 µM in experiment [10]; 1.38 µM in experiment [18]; 5.33 µM in experiment [11]; 3.13 µM in [12]. In addition, the TGI in [13] was found to be 1.53 µM; in experiment [14] it was 3.2 µM; in [15], 1.25 µM; in experiment [16], 1.75 µM; in [17], 3.47 µM.
Take `Cn1c(=O)c(C(=O)NC23CC4CC(CC(C4)C2)C3)c(O)c2ccccc21`: the TGI is greater than 100 µM in [1]; greater than 100 µM in [2]; greater than 100 µM in experiment [3]; 57.9 µM in experiment [4]; greater than 100 µM in [5]; 95.6 µM in [6]. Moreover, the TGI in experiment [7] is greater than 100 µM; in [8], greater than 100 µM; in experiment [9], greater than 100 µM; in [10] it was greater than 100 µM; in [12] it was 57.4 µM; in [14], 43.9 µM. The TGI was 83.8 µM in experiment [15], greater than 100 µM in experiment [16] and greater than 100 µM in experiment [17].
Take `COc1cccc2c1[C@H]1OC(=O)NC1CCCCC2` (stereo partly drawn): the TGI in experiment [1], in experiment [2], in experiment [3], in experiment [19], in experiment [4] and in experiment [5] was greater than 100 µM each time. Further, the TGI in experiment [6], in experiment [7], in [8], in experiment [9], in experiment [10] and in [18] was greater than 100 µM in each case. For the same compound, the TGI in [11], in experiment [12], in experiment [13], in experiment [14], in experiment [15] and in [16] was greater than 100 µM throughout. In experiment [17], this compound came in with a TGI greater than 100 µM.
On to `NC(N)=N/N=C\c1c(-c2ccccc2)nc2sccn12`, for which the TGI in experiment [1] is 31.8 µM; in [2], 73.3 µM; in experiment [3], 28.1 µM; in [19], 16.8 µM; in experiment [4], 28.5 µM; in experiment [5], 53.3 µM. The TGI is 27 µM in [6]; greater than 100 µM in experiment [7]; 27.5 µM in [8]; 51.7 µM in experiment [10]; 29.5 µM in [18]; 30.6 µM in experiment [11]. In addition, the TGI in experiment [12] came to 27.9 µM; in experiment [13], 29.2 µM; in experiment [14] it was 27.3 µM; in experiment [15], 24.8 µM; in experiment [16], 28.1 µM; in experiment [17] it was 29.4 µM.
For the compound `O=C1CC(=O)NC(=NN2C(=O)/C(=C/c3ccc(Cl)cc3)N=C2c2ccccc2)N1`, the TGI in experiment [1] was 30 µM; in experiment [2] it was 24.8 µM; in experiment [19], 24.2 µM; in experiment [4] it was 30.7 µM; in [6] it was 27.4 µM; in [7] it was 28 µM. Besides, the TGI in experiment [8] is 27.6 µM; in [9], 29.3 µM; in experiment [20] it was 53.7 µM; in [10], 22.7 µM; in experiment [18], 22.5 µM; in experiment [11], 30.2 µM. Besides, the TGI in [12] amounted to 33 µM; in [13], 32 µM; in experiment [15], 60.2 µM; in [16] it was 31.9 µM; in experiment [17] it was 25.6 µM.
In the case of `CC(=O)O[C@H]1C[C@@H](OC(C)=O)[C@@](C)(O)[C@@H]2[C@@H](OC(C)=O)[C@@]3(O)[C@H](/C=C(/CCl)[C@H]4O[C@H]4[C@@H](OC(C)=O)[C@@]12C)OC(=O)[C@@H]3C`, the TGI in [1], in experiment [2], in experiment [3], in experiment [19], in experiment [4] and in [6] was greater than 25 µM in each case. The TGI in [7], in experiment [8], in experiment [9], in experiment [10], in experiment [18] and in experiment [11] was greater than 25 µM throughout. Further, the TGI in [12], in experiment [13], in experiment [14], in experiment [15], in experiment [16] and in [17] was greater than 25 µM in each case.
Regarding `O=C1Nc2ccccc2C1S(=O)(=O)c1ccccc1` (stereo not drawn), the TGI in [1], in [2], in [3], in [19], in experiment [4] and in experiment [6] was greater than 100 µM each time. Also, the TGI in [7], in [8], in experiment [9], in experiment [10], in experiment [18] and in experiment [11] was greater than 100 µM throughout. Further, the TGI in experiment [12], in experiment [13], in [14], in [15], in [16] and in experiment [17] was greater than 100 µM in each case.
Take `CSc1nc(C)cc(=O)n1C1OC(COC(C)=O)C(OC(C)=O)C(OC(C)=O)C1OC(C)=O` (stereo not drawn): the TGI in experiment [1], in experiment [2], in experiment [3], in [19], in experiment [4] and in experiment [5] was greater than 100 µM throughout. Also, the TGI in experiment [6], in experiment [7], in experiment [8], in experiment [9], in experiment [10] and in experiment [18] was greater than 100 µM in each case. Moreover, the TGI in [11], in experiment [12], in experiment [13], in [14], in [15] and in experiment [16] was greater than 100 µM in each case. In experiment [17], this compound displayed a TGI greater than 100 µM.
As for `CCN(CC)C(=S)S`, the TGI in experiment [2] is 9.46 µM; in [3], greater than 100 µM; in experiment [19], greater than 100 µM; in [4], 19.7 µM; in experiment [5], 33.3 µM; in experiment [6], greater than 100 µM. For the same compound, the TGI in experiment [7] is 30.1 µM; in [8], greater than 100 µM; in [9] it was greater than 59.8 µM; in experiment [11], greater than 100 µM; in experiment [12], greater than 100 µM; in [13], greater than 43.6 µM. Moreover, the TGI in experiment [14] is greater than 100 µM; in experiment [16], greater than 100 µM; in experiment [17] it was 12.3 µM.
In the case of `O[C@]12c3ccccc3C1CCCCC2N1CCOCC1` (stereo partly drawn), the TGI in [1], in experiment [2], in experiment [3], in [4], in experiment [5] and in experiment [7] was greater than 100 µM throughout. The TGI in experiment [8], in experiment [9], in experiment [18], in experiment [12], in experiment [13] and in experiment [14] was greater than 100 µM in each case. For the same compound, the TGI in experiment [15], in [16] and in experiment [17] was greater than 100 µM throughout.
As to `O=C(O)c1ccccc1CC(Cc1ccccc1)C(=O)O` (stereo not drawn), the TGI in [1], in [2], in [3], in experiment [19], in [4] and in experiment [5] was greater than 100 µM throughout. For the same compound, the TGI in experiment [6], in experiment [7], in [8], in [9], in experiment [10] and in [18] was greater than 100 µM throughout. The TGI in [11], in [12], in [13], in experiment [14], in experiment [15] and in experiment [16] was greater than 100 µM throughout.
As for `Nc1ncnc2c1ncn2CCOC(c1ccccc1)P(=O)(O)O` (stereo not drawn), the TGI in experiment [1], in [2], in [3], in experiment [19], in experiment [4] and in experiment [5] was greater than 100 µM each time. The TGI in experiment [6], in experiment [8], in [10], in experiment [11], in experiment [12] and in experiment [13] was greater than 100 µM each time. For the same compound, the TGI in experiment [14], in experiment [15], in experiment [16] and in [17] was greater than 100 µM in each case.
Take `CCOC(=O)C(C)(Cc1ccc(O)cn1)NC(=O)c1ccccc1` (stereo not drawn): the TGI in experiment [1], in experiment [2], in [3], in experiment [19], in experiment [4] and in experiment [5] was greater than 100 µM throughout. Moreover, the TGI in experiment [6], in experiment [7], in [8], in experiment [9], in experiment [10] and in [18] was greater than 100 µM throughout. Further, the TGI in [11], in experiment [12], in experiment [13], in experiment [14], in [15] and in experiment [16] was greater than 100 µM each time. In experiment [17], this compound yielded a TGI greater than 100 µM.

The record behind these values is PubChem BioAssay (NCI).
